Test results published in patent US7947854B2, “Bis-cationic compounds and use thereof” (The University of Sydney, priority 2003, dated 2011).
Marks after values point to notes of the source that are not given here.

Assays:
Type in all cases: biochemical, Cryptococcus neoformans H99
Settings in all cases: modifier 10 mM (Triton X-100 0.1% w/v)
[1] = system: cytosolic phospholipase B (PLB activity); test: Radiometric assay, cytosolic PLB activity
Procedure: (§1) Fungal isolates and media. […] Isolate H99 was kindly supplied by Dr. Gary Cox (Duke University Medical Center, Durham, N.C., USA), and subcultured onto Sabouraud dextrose agar (SDA) at 30° C.
(§2) Cellular disruption to prepare membrane and cytosolic fractions. The cell pellet from the preparation of the supernatant, above, was also frozen at −70° C. After washing twice with imidazole buffer, it was disrupted in the presence of a protease inhibitor cocktail (P 8215 for fungal and yeast cells; 4-(2-aminoethyl)benzenesulfonyl fluoride hydrochloride, 100 mM, 1,10-phenanthroline, 500 mM, pepstatin A, 2.2 mM, E-64, 1.4 mM; Sigma) in a MiniBeadbeater-8 Cell Disrupter (MBB-8; Daintree Scientific, Tasmania, Australia) for three cycles of 1 min, alternating with a 1 min cooling period on ice. The homogenate was centrifuged at 14,000 g for 15 min to obtain the membrane (pellet) and the cytosolic (supernatant) fractions.
(§3) Radiometric assay method for phospholipases. Enzyme activities were measured as described previously in a final volume of 125 μL at 37° C. For the determination of secreted PLB activity, carrier dipalmitoyl phosphatidylcholine (DPPC, final concentration 800 μM) and 1,2-di[1-^14C] palmitoyl phosphatidylcholine (20,000 dpm) were dried under nitrogen and suspended in 125 mM imidazole acetate buffer (assay buffer, pH 4.0) by sonication using a Branson 450 sonifier. The reaction time was 22 min, using 1 μg total protein and PLB activity was determined by the rate of decrease of the radiolabelled PC substrate, with appearance of the label in free fatty acid. This assay also simultaneously allows for the determination of phospholipase A, C and D activities. These activities were measured by the appearance of radiolabel from PC in Lyso PC, diacylglycerol and phosphatidic acid, respectively.
(§4) All reactions were terminated by adding 0.5 mL of chloroform:methanol (2:1 v/v). The reaction products were extracted by the method as disclosed in Bligh, E. C. and W. J. Dyer. 1959 ‘A rapid method of total lipid extraction and purification.’ Can. J. Biochem. Physiol. 37:911-917, separated by TLC and quantified as previously described. In the case of PLC activity, the TLC plates were developed in petroleum ether (BP 60-80° C.): diethyl ether: acetic acid (90:15:1, v/v/v) instead of chloroform:methanol:water (65:25:4, v/v/v).
(§5) All experiments were carried out in duplicate or triplicate. The effects of pH on the various phospholipase activities were measured using 50 mM final concentration of imidazole-acetate buffer (pH range 3-5), MES buffer (pH range 6-8) and glycine buffer (pH 9-10). Controls for non-enzymic breakdown of substrates were included at all pH values. Cations, Triton X-100 and metal chelators were made up as stock solutions in water and diluted to the final concentration in the appropriate assay buffer.
(§6) Preparation of inhibitors and use in assays. The following compounds were tested (for structures, see FIG. 2): compound 1, 1,12-bis(tributylphosphonium)dodecane dibromide (Fluka AG, Buchs, Switzerland); compound 2, 1,10-bis(tributylammonium)-decane dibromide; compound 3, 1,12-bis(tributylammonium)do-decane dibromide (both synthesised in-house); compound 4, 1,10-bis(trimethylammonium)decane dibromide [“decamethonium”] (Sigma, St. Louis Mo., USA). All compounds were prepared as stock solutions of 700 μM in assay buffer containing 5 mM EDTA, which was then diluted serially with buffer to obtain solutions of 70, 7, 0.7 and 0.07 μM. In each assay, 45 μL of these solutions was used, and the final volume of 125 μL was made up of substrate, enzyme and buffer. The radiometric assay was carried out as above.

[2] = system: cytosolic phospholipase B (LPL/LPTA activities); test: Radiometric assay, cytosolic LPL/LPTA activities
Procedure: as §1, §2
(§7) Secreted LPL and LPTA activities were measured simultaneously in a reaction mixture containing 1-[^14C]palmitoyl lyso-PC (25,000 dpm) and carrier lyso-PC (final concentration 200 μM) in assay buffer. The reaction time was […] with 1 μg of total protein and LPL activity was measured by the rate of loss of 1-[^14C]palmitoyl lyso-PC with release of radiolabelled fatty acids. LPTA activity was estimated from the rate of formation of radiolabelled PC.
as §4, §5
(§8) Preparation of inhibitors and use in assays. The following compounds were tested (for structures, see FIG. 2): compound 1, 1,12-bis(tributylphosphonium)dodecane dibromide (Fluka AG, Buchs, Switzerland); compound 2, 1,10-bis(tributylammonium)-decane dibromide; compound 3, 1,12-bis(tributylammonium)do-decane dibromide (both synthesised in-house); compound 4, 1,10-bis(trimethylammonium)decane dibromide [“decamethonium”] (Sigma, St. Louis Mo., USA). All compounds were prepared as stock solutions of 700 μM in assay buffer containing 5 mM EDTA, which was then diluted serially with buffer to obtain solutions of 70, 7, 0.7 and 0.07 μM. In each assay, 45 μL of these solutions was used, and the final volume of 125 μL was made up of substrate, enzyme and buffer. The radiometric assay was carried out as above. Inhibition was calculated as the percent of substrates (DPPC or Lyso-PC) remaining in the case of PLB and LPL activities, or of DPPC produced, in the case of the LPTA activity. The amounts converted, or produced, in the inhibitor-free control were normalised to 100%, and the inhibition calculated against it. All assays were done in triplicate.
(§9) Under these conditions only PLB, LPL and LPTA activities (both secreted and cell-associated) were measured. Initially, compounds deemed to be potential inhibitors were assayed at 25 and 250 μM.

[3] = system: membrane-associated phospholipase B (PLB activity); test: Radiometric assay, membrane-associated PLB activity
Procedure: as §1, §2, §3, §4, §5, §6

[4] = system: membrane-associated phospholipase B (LPL/LPTA activities); test: Radiometric assay, membrane-associated LPL/LPTA activities
Procedure: as §1, §2, §7, §4, §5, §8, §9

Compound	Cytosolic PLB activity, percentage of the control ([1]; pH 4.0)	Cytosolic PLB activity, percentage of the control ([1]; pH 7.0)	Cytosolic LPL activity, percentage of the control ([2]; pH 4.0)	Cytosolic LPTA activity, percentage of the control ([2]; pH 4.0)	Cytosolic LPL activity, percentage of the control ([2]; pH 7.0)	Cytosolic LPTA activity, percentage of the control ([2]; pH 7.0)	Membrane-associated PLB activity, percentage of the control ([3]; pH 4.0)	Membrane-associated PLB activity, percentage of the control ([3]; pH 7.0)	Membrane-associated LPL activity, percentage of the control ([4]; pH 4.0)	Membrane-associated LPTA activity, percentage of the control ([4]; pH 4.0)	Membrane-associated LPL activity, percentage of the control ([4]; pH 7.0)	Membrane-associated LPTA activity, percentage of the control ([4]; pH 7.0)
[Ca+2] [Calcium]	100%	591* %	100%	100%	236%	206%	83%	533* %	100%	96%	166* %	140* %
O=C(O)CN(CCN(CC(=O)O)CC(=O)O)CC(=O)O [EDTA, ethylenediaminetetraacetic acid]	100%	100%	100%	100%	30%	32%	87%	67%	98%	94%	96%	100%
O=C(O)CN(CCOCCOCCN(CC(=O)O)CC(=O)O)CC(=O)O [EGTA, ethyleneglycoldiamine tetraacetic acid]	100%	163%	86%	88%	26%	29%	77%	200%	100%	90%	100%	100%
[Cl][Fe]([Cl])[Cl] [FeCl3]	79%	61%	81%	78%	22%	21%	92%	2* %	97%	75%	61* %	45* %
[Mg+2] [Magnesium]	100%	477* %	73%	70%	96%	85%	79%	467* %	97%	91%	145* %	123* %
Triton X-100	54* %	59%	62%	39%	0.9%	0%	19%	33* %	71%	52%	4* %	2* %
